Results: patent US20250129104A1, “7H-PYRROLO[2,3-D]PYRIMIDINES AND PREPARATION AND USES THEREOF” (BioSplice Therapeutics, Inc., priority 2021, published 2025)

How the values were obtained:
[1] = target: recombinant DYRK1A kinase (Homo sapiens (Human), UniProt Q13627); assay: DYRK1A kinase assay (Ser/Thr 18 peptide Z-lyte FRET assay); format: biochemical; settings: DYRK1A kinase activity; 15 μM ATP, 1 h room temperature; method text calls the value IC50
In short: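 FRET Z-lyte read-out (coumarin/fluorescein ratio, % phosphorylation) after 1 h development; IC50 from non-linear curve fit. Reaction: 0.25 μg/mL recombinant human DYRK1A, Ser/Thr 18 peptide 4 μM, ATP 15 μM, compound in 11-point 1:3 series from 10 μM, 1 h, room temperature, duplicate wells.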

[2] = system: Tau phosphorylation at Thr212 (pThr212); assay: tau phosphorylation assay: phosphoTau (Thr212) AlphaLISA in HEK293T cells transfected with DYRK1A and MAPT; format: cell-based; settings: HEK-293T; HEK293T cells transfected with human DYRK1A and MAPT; 18-24 h compound treatment; read-out: pTau (Thr212) EC50
Protocol: Representative compounds were screened using the assay procedure for tau phosphorylation activity described below.
HEK293T cells (ATCC, CRL3216) cultured in DMEM (Thermo Fisher Scientific, 10566024) supplemented with 10% FBS (Corning, 35-011-CV) and Penicillin/Streptomycin (Thermo Fisher Scientific, 15140163) were seeded in a 75 cm^2 flask at 8.1×10^6 cells/flask. The HEK293T cells were then transiently transfected with 5 μg DYRK1A (NM_001396) human untagged clone (OriGene, SC314641) and 2.5 μg MAPT (441 a.a. Tau gene) (NM_005910) human untagged clone (OriGene, TP313312) using Lipofectamine 3000 (Thermo Fisher Scientific, L30000015) and incubated for 20-30 hours in a humidified incubator at 37° C. and 5% CO2. Post-incubation, HEK293T cells transfected with the DYRK1A and MAPT expression vectors were harvested and seeded in BioCoat poly-D lysine coated 96-well plates (Corning, 354461) at 3×10^4 cells/well.
The above synthesized compounds were screened using the cell assay procedure to assess decreased Tau phosphorylation at Thr212 (pThr212) described below.
Each compound was dissolved in DMSO (Sigma-Aldrich, D8418-100 mL) as a 10 mM stock. 10 mM stocks were serially diluted 1:3, 10-point dose-response curve and added to the cells with a final concentration ranging from 20 μM to 1.1 nM. Cell were treated with compounds in duplicate and incubated for 18-24 hours in a humidified incubator at 37° C. and 5% CO2.
Following the overnight compound treatment, cells were lysed with 1× Alpha Surefire Ultra Lysis Buffer (Perkin Elmer, ALSU-LB-100ML) complemented with 1× Halt Phosphatase Inhibitor Cocktail (Thermo Fisher Scientific, 78427) and 1× Halt Protease Inhibitor Cocktail (Thermo Fisher Scientific, 78438). Lysates were spun down at 12,000 g for 10 min to remove any cellular debris and 5 μL of lysates were dispensed into a 384-well Opti-Plate (Perkin Elmer, 6007290) for the measurement of Tau phosphorylation in the phosphoTau (Thr212) AlphaLISA assay. Donor antibody, biotinylated HT7Tau (Thermo Fisher Scientific, MN1000B), and acceptor antibody, pThr212Tau (Thermo Fisher Scientific, 44740G) were both added to the cell lysates at a final concentration of 3 nM and incubated for 1 hour at room temperature. Following incubation of the lysates with the donor and acceptor antibodies, anti-rabbit IgG (Fc specific) AlphaLISA acceptor beads (Perkin Elmer, AL104C) were added at a 10 μg/mL final concentration and incubated for 1 hour at room temperature protected from light. Lastly, AlphaScreen streptavidin donor beads (PerkinElmer, 6760002) were added at 40 μg/mL final concentration and incubated for 1 hour at room temperature protected from light. Plates were read at […], and Em=615 nm on the EnVision Multilabel Plate Reader (Perkin Elmer). PhosphoTau (Thr212) AlphaLISA signal was used to plot, draw the curve fitting, and determine each compound's EC50 in Prism (GraphPad).

Row | SMILES | EC50 [1] [nM] | EC50 [2] [nM]
1 | CN1CCC(Nc2ncc3c(-c4cc5cnccc5s4)c[nH]c3n2)CC1 [Compound 87, N-(1-Methylpiperidin-4-yl)-5-(thieno[3,2-c]pyridin-2-yl)-7H-pyrrolo[2,3-d]pyrimidin-2-amine] | 6.8 | 107
2 | c1cn2cc(-c3c[nH]c4nc(C5CCC5)ncc34)ccc2n1 [Compound 103, 2-cyclobutyl-5-(imidazo[1,2-a]pyridin-6-yl)-7H-pyrrolo[2,3-d]pyrimidine] | 21.9 | 4500
3 | CC(C)(C)CNc1ncc2c(-c3ccc4nccn4c3)c[nH]c2n1 [Compound 110, 5-(Imidazo[1,2-a]pyridin-6-yl)-N-neopentyl-7H-pyrrolo[2,3-d]pyrimidin-2-amine] | 36 | 22
4 | CC(C)(F)CNc1ncc2c(-c3ccc4nccn4c3)c[nH]c2n1 [Compound 112, N-(2-Fluoro-2-methylpropyl)-5-(imidazo[1,2-a]pyridin-6-yl)-7H-pyrrolo[2,3-d]pyrimidin-2-amine] | 2.8 | 113
5 | C[C@@H](Nc1ncc2c(-c3ccc4nccn4c3)c[nH]c2n1)C(F)(F)F [Compound 115, (R)-5-(Imidazo[1,2-a]pyridin-6-yl)-N-(1,1,1-trifluoropropan-2-yl)-7H-pyrrolo [2,3-d]pyrimidin-2-amine] | 3.1 | 30
6 | C[C@H](Nc1ncc2c(-c3ccc4nccn4c3)c[nH]c2n1)C(F)(F)F [Compound 116, (S)-5-(Imidazo[1,2-a]pyridin-6-yl)-N-(1,1,1-trifluoropropan-2-yl)-7H-pyrrolo [2,3-d]pyrimidin-2-amine] | 9.6 | 117
7 | CC[C@H](C)Nc1ncc2c(-c3ccc4ncc(F)n4c3)c[nH]c2n1 [Compound 154, (S)—N-(sec-Butyl)-5-(3-fluoroimidazo[1,2-a]pyridin-6-yl)-7H-pyrrolo[2,3-d]pyrimidin-2-amine] | 25.9 | 476
8 | CC(C)(F)CNc1ncc2c(-c3ccc4ncc(F)n4c3)c[nH]c2n1 [Compound 155, N-(2-Fluoro-2-methylpropyl)-5-(3-fluoroimidazo[1,2-a]pyridin-6-yl)-7H-pyrrolo[2,3-d]pyrimidin-2-amine] | 11.7 | 227
9 | COC[C@H](C)Nc1ncc2c(-c3ccc4ncc(F)n4c3)c[nH]c2n1 [Compound 161, (S)-5-(3-Fluoroimidazo[1,2-a]pyridin-6-yl)-N-(1-methoxypropan-2-yl)-7H-pyrrolo[2,3-d]pyrimidin-2-amine] | 26.5 | 361
10 | COc1nc(CC(C)C)nc2[nH]cc(-c3cc(F)c4nccn4c3)c12 [Compound 187, 5-(8-Fluoroimidazo[1,2-a]pyridin-6-yl)-2-isobutyl-4-methoxy-7H-pyrrolo [2,3-d]pyrimidine] | 20.3 | 765
11 | Fc1cc(-c2c[nH]c3nc(C4CC4)ncc23)cn2ccnc12 [Compound 189, 2-Cyclopropyl-5-(8-fluoroimidazo[1,2-a]pyridin-6-yl)-7H-pyrrolo[2,3-d]pyrimidine] | 24.2 | 1660
12 | CC[C@H](C)Nc1ncc2c(-c3cc(F)c4nccn4c3)c[nH]c2n1 [Compound 198, (S)—N-(sec-Butyl)-5-(8-fluoroimidazo[1,2-a]pyridin-6-yl)-7H-pyrrolo[2,3-d]pyrimidin-2-amine] | 19.5 | 351
13 | CC(C)(F)CNc1ncc2c(-c3cc(F)c4nccn4c3)c[nH]c2n1 [Compound 199, N-(2-Fluoro-2-methylpropyl)-5-(8-fluoroimidazo[1,2-a]pyridin-6-yl)-7H-pyrrolo[2,3-d]pyrimidin-2-amine] | 15.5 | 49
14 | C[C@@H](Nc1ncc2c(-c3cc(F)c4nccn4c3)c[nH]c2n1)C(F)(F)F [Compound 202, (R)-5-(8-Fluoroimidazo[1,2-a]pyridin-6-yl)-N-(1,1,1-trifluoropropan-2-yl)-7H-pyrrolo[2,3-d]pyrimidin-2-amine] | 6 | 76
15 | COC[C@H](C)Nc1ncc2c(-c3cc(F)c4nccn4c3)c[nH]c2n1 [Compound 205, (S)-5-(8-Fluoroimidazo[1,2-a]pyridin-6-yl)-N-(1-methoxypropan-2-yl)-7H-pyrrolo[2,3-d]pyrimidin-2-amine] | 5.2 | 124
16 | Fc1cc(-c2c[nH]c3nc(NCC4(F)CC4)ncc23)cn2ccnc12 [Compound 208, N-((1-Fluorocyclopropyl)methyl)-5-(8-fluoroimidazo[1,2-a]pyridin-6-yl)-7H-pyrrolo[2,3-d]pyrimidin-2-amine] | 7.1 | 30
17 | Cc1cnc2c(F)cc(-c3c[nH]c4nc(C5CC5)ncc34)cn12 [Compound 276, 2-Cyclopropyl-5-(8-fluoro-3-methylimidazo[1,2-a]pyridin-6-yl)-7H-pyrrolo [2,3-d]pyrimidine] | 28.4 | 657
18 | CC[C@H](C)Nc1ncc2c(-c3cc(F)c4ncc(C)n4c3)c[nH]c2n1 [Compound 285, (S)—N-(sec-Butyl)-5-(8-fluoro-3-methylimidazo[1,2-a]pyridin-6-yl)-7H-pyrrolo[2,3-d]pyrimidin-2-amine] | 12.7 | 241
19 | COC[C@H](C)Nc1ncc2c(-c3cc(F)c4ncc(C)n4c3)c[nH]c2n1 [Compound 292, (S)-5-(8-Fluoro-3-methylimidazo[1,2-a]pyridin-6-yl)-N-(1-methoxypropan-2-yl)-7H-pyrrolo[2,3-d]pyrimidin-2-amine] | 17 | 509
20 | Cc1cnc2c(F)cc(-c3c[nH]c4nc(NC5CCC(F)(F)CC5)ncc34)cn12 [Compound 301, N-(4,4-Difluorocyclohexyl)-5-(8-fluoro-3-methylimidazo[1,2-a]pyridin-6-yl)-7H-pyrrolo[2,3-d]pyrimidin-2-amine] | 6.6 | 66
21 | CC(C)(F)CNc1ncc2c(-c3ccc4ncc(C(F)F)n4c3)c[nH]c2n1 [Compound 329, 5-(3-(difluoromethyl)imidazo[1,2-a]pyridin-6-yl)-N-(2-fluoro-2-methylpropyl)-7H-pyrrolo[2,3-d]pyrimidin-2-amine] | 6.8 | 211
22 | O=C(NCC(F)F)c1cnc2ccc(-c3c[nH]c4nc(C5CC5)ncc34)cn12 [Compound 407, 6-(2-Cyclopropyl-7H-pyrrolo[2,3-d]pyrimidin-5-yl)-N-(2,2-difluoroethyl) imidazo[1,2-a]pyridine-3-carboxamide] | 1.2 | 11
23 | CC(C)Cc1ncc2c(-c3cnc4nccn4c3)c[nH]c2n1 [Compound 448, 5-(Imidazo[1,2-a]pyrimidin-6-yl)-2-isobutyl-7H-pyrrolo[2,3-d]pyrimidine] | 9.3 | 245
24 | FC(F)(F)CCc1ncc2c(-c3cnc4nccn4c3)c[nH]c2n1 [Compound 449, 5-(Imidazo[1,2-a]pyrimidin-6-yl)-2-(3,3,3-trifluoropropyl)-7H-pyrrolo[2,3-d]pyrimidine] | 9.4 | 497
25 | c1cn2cc(-c3c[nH]c4nc(C5CC5)ncc34)cnc2n1 [Compound 450, 2-Cyclopropyl-5-(imidazo[1,2-a]pyrimidin-6-yl)-7H-pyrrolo[2,3-d]pyrimidine] | 16.1 | 980
26 | c1cn2cc(-c3c[nH]c4nc(CC5CCC5)ncc34)cnc2n1 [Compound 452, 2-(Cyclobutylmethyl)-5-(imidazo[1,2-a]pyrimidin-6-yl)-7H-pyrrolo[2,3-d]pyrimidine] | 20.2 | 1220
27 | CC(C)(F)CNc1ncc2c(-c3cnc4nccn4c3)c[nH]c2n1 [Compound 460, N-(2-Fluoro-2-methylpropyl)-5-(imidazo[1,2-a]pyrimidin-6-yl)-7H-pyrrolo [2,3-d]pyrimidin-2-amine] | 1.5 | 57
